Laboratory results published in patent US20160009693A1, “HERBICIDAL COMPOUNDS” (SYNGENTA LIMITED, priority 2013, published 2016).

Legend:
Format in all cases: in vivo
Settings in all cases: applied at 1000 g/h, evaluated after 13 days
[1] = system: Ipomoea hederacea (IPOHE); assay: Herbicidal glasshouse test, post-emergence, IPOHE
[2] = system: Alopecurus myosuroides (ALOMY); assay: Herbicidal glasshouse test, pre-emergence, ALOMY
Solanum nigrum (SOLNI) [3] = assay: Herbicidal glasshouse test, pre-emergence, SOLNI
Method in brief: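 This pre-emergence glasshouse herbicide test used Solanum nigrum sown in standard soil. One day after sowing, pots were sprayed with the compound in acetone/water (50:50) with 0.5% Tween 20. They were then grown at 24/16° C., with 14 hours light and 65% humidity, and watered twice daily. Percentage damage was scored after 13 days on a five point scale, where 5=80-100% and 1=0-19%.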

[4] = system: Alopecurus myosuroides (ALOMY); assay: Herbicidal glasshouse test, post-emergence, ALOMY
Setaria faberi (SETFA) [5] = assay: Herbicidal glasshouse test, pre-emergence, SETFA
[6] = system: Amaranthus retoflexus (AMARE); assay: Herbicidal glasshouse test, pre-emergence, AMARE
Method in brief: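 This pre-emergence glasshouse herbicide test used Amaranthus retoflexus sown in standard soil. After one day of cultivation, an aqueous spray made from the technical ingredient in 50:50 acetone/water with 0.5% Tween 20 was applied. Pots stayed at 24/16° C., 14 hours light, 65% humidity, with twice-daily watering. Damage was rated on a five point scale (1=0-19% up to 5=80-100%).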

Solanum nigrum (SOLNI) [7] = assay: Herbicidal glasshouse test, post-emergence, SOLNI
[8] = system: Amaranthus retoflexus (AMARE); assay: Herbicidal glasshouse test, post-emergence, AMARE
Method in brief: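 This post-emergence glasshouse test used AMARE plants raised in standard soil for 8 days under controlled conditions (24/16° C. day/night, 14 hours light, 65% humidity). Foliage was sprayed with formulated compound in acetone/water (50:50) containing 0.5% Tween 20. Plants were then watered twice daily, and after 13 days percentage damage was rated on a five point scale.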

[9] = system: Echinochloa crus-galli (ECHCG); assay: Herbicidal glasshouse test, pre-emergence, ECHCG
Method in brief: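 In this pre-emergence glasshouse test, ECHCG seeds sown in pots of standard soil were sprayed one day after sowing with the test material in acetone/water (50:50) containing 0.5% Tween 20. Plants were kept at 24/16° C., 14 hours light, 65% humidity, and watered twice daily. Percentage damage was rated after 13 days on a 1–5 scale.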

Setaria faberi (SETFA) [10] = assay: Herbicidal glasshouse test, post-emergence, SETFA
Method in brief: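 This post-emergence glasshouse herbicide test used potted Setaria faberi. Plants were cultivated for 8 days under controlled conditions (24/16° C. day/night, 14 hours light, 65% humidity) and then treated with an aqueous spray made from an acetone/water (50:50) solution containing 0.5% Tween 20. After 13 days of further growth with twice-daily watering, damage was rated on a five point scale (5=80-100%; 1=0-19%).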

[11] = system: Echinochloa crus-galli (ECHCG); assay: Herbicidal glasshouse test, post-emergence, ECHCG
Method in brief: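 In this post-emergence glasshouse test, barnyard grass (ECHCG) was cultivated for 8 days under controlled conditions (24/16° C. day/night, 14 hours light, 65% humidity). It was then sprayed with an aqueous solution of the technical compound in acetone / water (50:50) with 0.5% Tween 20. Plants were kept under the same conditions and watered twice daily. After 13 days, percentage damage was rated on a five point scale (5=80-100%; 1=0-19%).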

[12] = system: Ipomoea hederacea (IPOHE); assay: Herbicidal glasshouse test, pre-emergence, IPOHE

CSc1cccc(-n2c(=O)c(C(=O)Nc3nnnn3C)nn(C)c2=O)c1 [Compound 1.043]
POST Application IPOHE, percentage damage (five point scale) [1]: 5 (5=80-100%)
PRE Application ALOMY, percentage damage (five point scale) [2]: 4 (4=60-79%)
PRE Application SOLNI, percentage damage (five point scale) (Solanum nigrum (SOLNI) [3]): 5 (5=80-100%)
POST Application ALOMY, percentage damage (five point scale) [4]: 5 (5=80-100%)
PRE Application SETFA, percentage damage (five point scale) (Setaria faberi (SETFA) [5]): 2 (2=20-39%)
PRE Application AMARE, percentage damage (five point scale) [6]: 5 (5=80-100%)
POST Application SOLNI, percentage damage (five point scale) (Solanum nigrum (SOLNI) [7]): 5 (5=80-100%)
POST Application AMARE, percentage damage (five point scale) [8]: 5 (5=80-100%)
PRE Application ECHCG, percentage damage (five point scale) [9]: 5 (5=80-100%)
POST Application SETFA, percentage damage (five point scale) (Setaria faberi (SETFA) [10]): 4 (4=60-79%)
POST Application ECHCG, percentage damage (five point scale) [11]: 5 (5=80-100%)
PRE Application IPOHE, percentage damage (five point scale) [12]: 5 (5=80-100%)
